Source: US20150133512A1, “N-ARYLTRIAZOLE COMPOUNDS AS LPAR ANTAGONISTS” (Hoffmann-La Roche Inc,, priority 2012, published 2015)

Columns and labels:
[1] = target: human recombinant LPA1 Lysophospholipid receptor (Homo sapiens, UniProt Q92633); assay: Calcium flux assay using FLIPR, LPA1 antagonist activity; format: cell-based; settings: for IC50: ChemiScreen Calcium-optimized stable cell line, antagonist mode, inhibition of agonist-induced calcium flux
Experimental: (§1) Calcium Flux Assay Using Fluorometric Imaging Plate Reader (FLIPR)
Cell Culture Conditions: The ChemiScreen Calcium-optimized stable cell line containing the human recombinant LPA1 Lysophospholipid receptor was purchased from Chemicon International, Inc./Millipore. The cells were cultured in DMEM-high glucose supplemented with 10% fetal bovine serum, 2 mM glutamine, 100 U/mL penicillin/100 μg/mL streptomycin, 1× non-essential amino acids, 10 mM HEPES and 0.25 mg/mL Geneticin. Cells were harvested with trypsin-EDTA and counted using ViaCount reagent. The cell suspension volume was adjusted to 2.0×10^5 cells/mL with complete growth media. Aliquots of 50 μL were dispensed into 384 well black/clear tissue culture treated plates (BD) and the microplates were placed in a 37° C. incubator overnight. The following day plates were used in the assay.
(§2) Dye Loading and Assay: Loading Buffer (FLIPR Calcium-4, Molecular Devices) was prepared by dissolving the contents of one bottle into 100 mL Hank's Balanced Salt Solution containing 20 mM HEPES and 2.5 mM probenecid. Plates were loaded onto Biotek plate washer and growth media was removed and replaced with 20 μL of Hank's Balanced Salt Solution containing 20 mM HEPES and 2.5 mM probenecid, followed by 25 μL of Loading Buffer. The plates were then incubated for 30 minutes at 37° C.
During the incubation, test compounds were prepared by adding 90 μL of HBSS/20 mM HEPES/0.1% BSA buffer to 2 μL of serially diluted compounds. To prepare serial dilutions, 10 mM stocks of compounds were prepared in 100% DMSO.
After incubation, both the cell and “assay” plates were brought to the FLIPR and 20 μL of the diluted compounds were transferred to the cell plates by the FLIPR. Compound addition was monitored by FLIPR to detect any agonist activity of the compounds. Plates were then incubated for 30 minutes at room temperature protected from light. […] During the assay, fluorescence readings were taken simultaneously from all 384 wells of the cell plate every 1.5 seconds. Five readings were taken to establish a stable baseline, then 20 μL of sample was rapidly (30 μL/sec) and simultaneously added to each well of the cell plate. The fluorescence was continuously monitored before, during and after sample addition for a total elapsed time of 100 seconds. Responses (increase in peak fluorescence) in each well following agonist addition was determined. The initial fluorescence reading from each well, prior to ligand stimulation, was used as zero baseline value for the data from that well. The responses were expressed as % inhibition of the buffer control.

LPA3 = target: T1, LPA3 (Homo sapiens, UniProt Q9UBY5); assay: Calcium flux assay using FLIPR, LPA3 antagonist activity; format: cell-based; settings: for IC50: antagonist activity
T1 sequence (Q9UBY5 1-353): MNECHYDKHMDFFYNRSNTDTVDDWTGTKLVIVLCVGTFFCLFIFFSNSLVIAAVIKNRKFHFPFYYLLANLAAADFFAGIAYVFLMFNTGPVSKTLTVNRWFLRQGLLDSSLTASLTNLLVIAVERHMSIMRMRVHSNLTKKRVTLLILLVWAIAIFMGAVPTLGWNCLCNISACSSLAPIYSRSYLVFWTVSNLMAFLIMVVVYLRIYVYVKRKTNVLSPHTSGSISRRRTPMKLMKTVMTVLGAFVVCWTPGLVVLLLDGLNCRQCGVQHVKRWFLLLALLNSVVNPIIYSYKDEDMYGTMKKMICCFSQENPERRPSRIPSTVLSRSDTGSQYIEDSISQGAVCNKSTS
Experimental: as §1, §2
During the incubation, test compounds were prepared by adding 90 μL of HBSS/20 mM HEPES/0.1% BSA buffer to 2 μL of serially diluted compounds. To prepare serial dilutions, 10 mM stocks of compounds were prepared in 100% DMSO. The compound dilution plate was set up as follows: well #1 received 29 μL of stock compound and 31 μL DMSO; wells 2-10 received 40 μL of DMSO; mixed and transferred 20 μL of solution from well #1 into well #2; continued with 1:3 serial dilutions out 10 steps; transferred 2 μL of diluted compound into duplicate wells of 384 well “assay plate” and then added the 90 μL of buffer.
After incubation, both the cell and “assay” plates were brought to the FLIPR and 20 μL of the diluted compounds were transferred to the cell plates by the FLIPR. Compound addition was monitored by FLIPR to detect any agonist activity of the compounds. Plates were then incubated for 30 minutes at room temperature protected from light. After the incubation, plates were returned to the FLIPR and 20 μL of 4.5× concentrated agonist was added to the cell plates. During the assay, fluorescence readings were taken simultaneously from all 384 wells of the cell plate every 1.5 seconds. Five readings were taken to establish a stable baseline, then 20 μL of sample was rapidly (30 μL/sec) and simultaneously added to each well of the cell plate. The fluorescence was continuously monitored before, during and after sample addition for a total elapsed time of 100 seconds. Responses (increase in peak fluorescence) in each well following agonist addition was determined. The initial fluorescence reading from each well, prior to ligand stimulation, was used as zero baseline value for the data from that well. The responses were expressed as % inhibition of the buffer control.

Chain of human recombinant LPA1 Lysophospholipid receptor (Q92633 whole entry): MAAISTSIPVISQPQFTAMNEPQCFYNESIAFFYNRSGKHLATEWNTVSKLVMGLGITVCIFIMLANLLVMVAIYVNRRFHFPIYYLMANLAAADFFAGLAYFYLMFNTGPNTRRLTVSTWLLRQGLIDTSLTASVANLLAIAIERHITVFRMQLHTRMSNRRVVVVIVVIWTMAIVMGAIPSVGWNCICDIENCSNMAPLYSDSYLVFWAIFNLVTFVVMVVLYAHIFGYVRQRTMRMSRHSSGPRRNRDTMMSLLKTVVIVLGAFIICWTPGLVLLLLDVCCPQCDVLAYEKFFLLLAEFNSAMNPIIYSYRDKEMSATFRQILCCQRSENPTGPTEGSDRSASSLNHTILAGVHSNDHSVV

| IC50 [1] | IC50 (LPA3) | inhibition at 30 µM [1] | inhibition at 30 µM (LPA3) | SMILES |
| --- | --- | --- | --- | --- |
| 0.174 µM | > 30 µM |  |  | Cc1nnn(-c2ccc(-c3ccc(C4(C(=O)O)CCC4)cc3)cc2)c1NC(=O)O[C@H](C)c1ccccc1 (single isomer, unassigned) [Example 32] |
| 0.025 µM | > 30 µM |  |  | Cc1nnn(-c2ccc(-c3ccc(C4(C(=O)O)CC4)cc3)cc2)c1NC(=O)O[C@H](C)c1ccccc1 [Example 1, 1-{4′-[4-Methyl-5-((R)-1-phenyl-ethoxycarbonylamino)-[1,2,3]triazol-1-yl]-biphenyl-4-yl}-cyclopropanecarboxylic acid] |
| > 30 µM | > 30 µM | 40% |  | Cc1nnn(-c2ccc(-c3ccc(CC(=O)O)cc3)cc2)c1NC(=O)O[C@H](C)c1ccccc1 [Example 2, {4′-[4-Methyl-5-((R)-1-phenyl-ethoxycarbonylamino)-[1,2,3]triazol-1-yl]-biphenyl-4-yl}-acetic acid] |
| > 30 µM | > 30 µM |  |  | Cc1c(NC(=O)O[C@H](C)c2ccccc2)nnn1-c1ccc(-c2ccc(C3(C(=O)O)CC3)cc2)cc1 [Example 3, 1-{4′-[5-Methyl-4-((R)-1-phenyl-ethoxycarbonylamino)-[1,2,3]triazol-1-yl]-biphenyl-4-yl}-cyclopropanecarboxylic acid] |
| > 30 µM | > 30 µM |  |  | Cc1c(NC(=O)O[C@H](C)c2ccccc2)nnn1-c1ccc(-c2ccc(CC(=O)O)cc2)cc1 [Example 4, {4′-[5-Methyl-4-((R)-1-phenyl-ethoxycarbonylamino)-[1,2,3]triazol-1-yl]-biphenyl-4-yl}-acetic acid] |
|  | > 30 µM |  |  | Cc1nnn(-c2ccc(-c3ccc(C4(C(=O)O)CC4)cc3)cc2)c1NC(=O)O[C@H](C)c1ccccc1F [Example 5, 1-(4′-{5-[(R)-1-(2-Fluoro-phenyl)-ethoxycarbonylamino]-4-methyl-[1,2,3]triazol-1-yl}-biphenyl-4-yl)-cyclopropanecarboxylic acid] |
| 0.112 µM | 25.9 µM |  | 55.2% | Cc1nnn(-c2ccc(-c3ccc(C4(C(=O)O)CC4)cc3)cc2)c1NC(=O)O[C@H](C)c1ccccc1C(F)(F)F [Example 6, 1-(4′-{4-Methyl-5-[(R)-1-(2-trifluoromethyl-phenyl)-ethoxycarbonylamino]-[1,2,3]triazol-1-yl}-biphenyl-4-yl)-cyclopropanecarboxylic acid] |
| 0.174 µM | 6.86 µM |  |  | Cc1nnn(-c2ccc(-c3ccc(C4(C(=O)O)CC4)cc3)cc2)c1NC(=O)O[C@H](C)c1cccc(C(F)(F)F)c1 [Example 7, 1-(4′-{4-Methyl-5-[(R)-1-(3-trifluoromethyl-phenyl)-ethoxycarbonylamino]-[1,2,3]triazol-1-yl}-biphenyl-4-yl)-cyclopropanecarboxylic acid] |
| > 30 µM | > 30 µM |  |  | Cc1nnn(-c2ccc(-c3ccc(C4(C(=O)O)CC4)cc3)cc2)c1NC(=O)O[C@@H]1CCc2ccccc21 [Example 8, 1-{4′-[5-((R)-Indan-1-yloxycarbonylamino)-4-methyl-[1,2,3]triazol-1-yl]-biphenyl-4-yl}-cyclopropanecarboxylic acid] |
| 0.217 µM | > 30 µM |  |  | Cc1nnn(-c2ccc(-c3ccc(C4(C(=O)O)CC4)cc3)cc2)c1NC(=O)O[C@H](C)C(C)C [Example 9, 1-{4′-[5-((R)-1,2-Dimethyl-propoxycarbonylamino)-4-methyl-[1,2,3]triazol-1-yl]-biphenyl-4-yl}-cyclopropanecarboxylic acid] |
| > 30 µM | > 30 µM |  |  | Cc1nnn(-c2ccc(-c3ccc(C4(C(=O)O)CC4)cc3)cc2)c1NC(=O)OC(C)C [Example 11, 1-[4′-(5-iso-Propoxycarbonylamino-4-methyl-[1,2,3]triazol-1-yl)-biphenyl-4-yl]-cyclopropanecarboxylic acid] |
| 0.134 µM | > 30 µM |  |  | Cc1nnn(-c2ccc(-c3ccc(C4(C(=O)O)CC4)cc3)cc2)c1NC(=O)OC(C)C1CC1 (stereo not drawn) [Example 12, 1-{4′-[5-(1-Cyclopropyl-ethoxycarbonylamino)-4-methyl-[1,2,3]triazol-1-yl]-biphenyl-4-yl}-cyclopropanecarboxylic acid] |
| 0.161 µM | > 30 µM |  |  | Cc1nnn(-c2ccc(-c3ccc(C4(C(=O)O)CC4)cc3)cc2)c1NC(=O)OC(C)C1CCC1 (stereo not drawn) [Example 13, 1-{4′-[5-(1-Cyclobutyl-ethoxycarbonylamino)-4-methyl-[1,2,3]triazol-1-yl]-biphenyl-4-yl}-cyclopropanecarboxylic acid] |
| 0.022 µM |  |  | 46.3% | Cc1nnn(-c2ccc(-c3ccc(C4(C(=O)O)CC4)c(F)c3)cc2)c1NC(=O)O[C@H](C)c1ccccc1 [Example 15, 1-{3-Fluoro-4′-[4-methyl-5-((R)-1-phenyl-ethoxycarbonylamino)-[1,2,3]triazol-1-yl]-biphenyl-4-yl}-cyclopropanecarboxylic acid] |
| 0.245 µM | > 30 µM |  |  | COc1cc(-c2ccc(C3(C(=O)O)CC3)cc2)ccc1-n1nnc(C)c1NC(=O)O[C@H](C)c1ccccc1 [Example 16, 1-{3′-Methoxy-4′-[4-methyl-5-((R)-1-phenyl-ethoxycarbonylamino)-[1,2,3]triazol-1-yl]-biphenyl-4-yl}-cyclopropanecarboxylic acid] |
| 0.043 µM | 21.7 µM |  | 63.7% | CCc1nnn(-c2ccc(-c3ccc(C4(C(=O)O)CC4)cc3)cc2)c1NC(=O)O[C@H](C)c1ccccc1 [Example 17, 1-{4′-[4-Ethyl-5-((R)-1-phenyl-ethoxycarbonylamino)-[1,2,3]triazol-1-yl]-biphenyl-4-yl}-cyclopropanecarboxylic acid] |
| 1.23 µM | > 30 µM | 79.8% |  | CCc1nnn(-c2ccc(-c3ccc(CC(=O)O)cc3)cc2)c1NC(=O)O[C@H](C)c1ccccc1 [Example 18, {4′-[4-Ethyl-5-((R)-1-phenyl-ethoxycarbonylamino)-[1,2,3]triazol-1-yl]-biphenyl-4-yl}-acetic acid] |
|  | > 30 µM |  |  | Cc1nnn(-c2ccc(-c3ccc(C4(c5nnn[nH]5)CC4)cc3)cc2)c1NC(=O)O[C@H](C)c1ccccc1 [Example 29, (R)-1-Phenyl-ethyl-1-(4′-(1-(1H-tetrazol-5-yl)cyclopropyl)biphenyl-4-yl)-4-methyl-1H-1,2,3-triazol-5-ylcarbamate] |

| SMILES | IC50 [1] | IC50 (LPA3) | inhibition at 30 µM [1] | inhibition at 30 µM (LPA3) |
| --- | --- | --- | --- | --- |
| CC[C@@H](C)OC(=O)Nc1c(C)nnn1-c1ccc(-c2ccc(C3(C(=O)O)CC3)cc2)cc1 [Example 10, 1-{4′-[5-((R)-sec-Butoxycarbonylamino)-4-methyl-[1,2,3]triazol-1-yl]-biphenyl-4-yl}-cyclopropanecarboxylic acid] | 0.398 µM | > 30 µM |  |  |
| Cc1nnn(-c2ccc(-c3ccc(C4(C(=O)O)CC4)cc3)cc2)c1NC(=O)OC(C)(C)C [Example 14, 1-[4′-(5-tert-Butoxycarbonylamino-4-methyl-[1,2,3]triazol-1-yl)-biphenyl-4-yl]-cyclopropanecarboxylic acid] | 0.985 µM | > 30 µM |  |  |
